Assay results reported in ChEMBL document CHEMBL4483862, “Open-source discovery of chemical leads for next-generation chemoprotective antimalarials” (2018).

Tested on: Plasmodium berghei
Assay: Luciferase/luciferin-expressing antifolate-resistant parasites were used to infect a culture of HepG2 cells that were pre-incubated with compounds. Infected hepatocytes emit light due to the luciferase reaction. Assay results are presented as the percent inhibition of light emission compared to control. […]
Type: functional
Settings: sporozoite; for IC50: read-out: LUCIFERASE INFECTION ASSAY - IC50; for IC90: read-out: LUCIFERASE INFECTION ASSAY - IC90

SMILES | IC50 [µM] | IC90 [µM]
CCOc1ccccc1NC(=O)c1cc(CC(C)C)oc1C | > 10.9 | > 10.9
Cc1ccc(SCCNS(=O)(=O)c2ccc(F)cc2)cc1 | > 10.1 | > 10.1
O=C1c2cccc3c([N+](=O)[O-])ccc(c23)C(=O)N1Cc1cccnc1 | > 9.9 | > 9.9
Cn1nc(C(C)(C)C)cc1NC(=O)Nc1cc(Cl)cc(Cl)c1 | > 9.67 | > 9.67
CCOC(=O)c1c(NC(=O)C[n+]2ccc(Cc3ccccc3)cc2)sc(C)c1C | 3.79 | 8.6
Cc1sc2ncnc(Sc3nnc(C(F)(F)F)n3C)c2c1C | > 10 | > 10
N#Cc1c(Cl)c2ccccc2[nH]c1=O | 14.9 | > 16.1
Cc1nn2c(=O)c(Cc3ccccc3Cl)c(C)[nH]c2c1-c1ccccc1 | 2.68 | 2.97
N#C/C(=N\Nc1ccc(F)c(Cl)c1)C(=O)c1ccc(Cl)cc1 | 1.07 | 1.26
O=C(Nc1ccc(Cl)cc1)Nc1cc(Cl)sc1Cl | 3.09 | 3.79
O=C(Nc1ccc(F)cc1)OCCSc1ccc([N+](=O)[O-])c2nonc12 | > 8.72 | > 8.72
COCC(C)NS(=O)(=O)c1c(C(C)C)cc(C(C)C)cc1C(C)C (centres undefined) | > 9.28 | > 9.28
CCOc1ccccc1NC(=O)CSc1nnc2cc(C)c3ccccc3n12 | > 10 | > 10
CCCCNC(=O)Nc1ccn(C)n1 | > 16.8 | > 16.8
FC(F)(F)c1ccc(NCCNc2ccc(C(F)(F)F)cn2)nc1 | 1.24 | 2.55
Cc1nn2c(=O)cc(C(C)C)[nH]c2c1-c1ccc(F)cc1 | > 11.6 | > 11.6
Clc1ccc(CNc2ncnc3sccc23)cc1 | 3.31 | > 10
O=C(CNc1cc(C(F)(F)F)cc(C(F)(F)F)c1)NC(=O)NC1CCCC1 | 5.94 | > 10
CSc1sc(Cl)c(-c2ccc(Cl)cc2)c1C#N | > 11 | > 11

SMILES | IC50 [µM] | IC90 [µM]
CSc1nnc(-c2ccc(C(C)(C)C)cc2)n1C | > 12.6 | > 12.6
CC(=O)N[C@H]1[C@@H](OC(C)=O)O[C@H](COC(c2ccccc2)(c2ccccc2)c2ccccc2)[C@@H](OC(C)=O)[C@@H]1OC(C)=O | > 5.6 | > 5.6
Cc1nc2ccccn2c1C(=O)N/N=C/c1ccccc1O | 10.1 | > 11.2
Cc1cc(C)c(S(=O)(=O)N2CCC(C(=O)Nc3nnc(C)o3)CC2)c(C)c1 | > 10 | > 10
CCOC(=O)c1cnn(-c2c(Cl)cc(Cl)cc2Cl)c1-c1ccccc1 | > 8.34 | > 8.34
CCN(CC)C(=S)SCC(=O)c1cc(C)n(-c2ccccc2)c1C | 4.85 | > 10
CCc1[nH]c(=O)c(C#N)c(-c2ccccc2)c1C(=O)OC | > 11.7 | > 11.7
CCCCCCOc1ccc(-c2cnc(SC)nc2)cc1 | 0.205 | 0.535
C=S(=O)(NC(=O)c1ccc(C(F)(F)F)cc1)c1ccccc1 (centres undefined) | > 10.1 | > 10.1
CCn1cc(CN(C)C(=O)c2sc3cccc(Cl)c3c2Cl)c(C)n1 | > 8.63 | > 8.63
O=C1C=CC(=O)N1c1cccc2ccccc12 | > 14.8 | > 14.8
Clc1ccc(-c2nnc(-c3cc(Cl)cc(Cl)c3)o2)cc1 | > 10.1 | > 10.1
N#C/C(=N\Nc1ccc(F)cc1)C(=O)c1ccc(Cl)cc1 | 9.59 | > 10.9
O=C(NC(c1ccccc1O)C(NC(=O)c1ccccc1)c1ccccc1O)c1ccccc1 (centres undefined) | > 7.29 | > 7.29
Cc1ccc(C2NC(=S)NC3=C2C(=O)c2ccccc23)cc1 (centres undefined) | > 10.8 | > 10.8
O=[N+]([O-])c1ccc(SCCOS(=O)(=O)c2cccc(C(F)(F)F)c2)c2nonc12 | > 7.34 | > 7.34
Fc1cccc(-n2nnnc2-c2ccc(Cl)c(Cl)c2)c1 | > 10.7 | > 10.7
N#CC(Nc1cc(C(F)(F)F)cc(C(F)(F)F)c1)c1ccccc1 (centres undefined) | 7.17 | > 9.59
